Data on 6 compounds can be found in patent US5534554A, “Sucrose ester-C20 to C28 alcohol formulations” (priority 1994, dated 1996).

One series relates to viruses. To be noted: cited from earlier work.
For series [1] the following is noted: literature; cited from earlier work.
For the next series, the system named is wild-type HSV-2. Kind of series: Plaque inhibition, wild-type HSV-2 in Vero cells. In kind it is cell-based. To be noted: FIG. 7, Panel A.
In series [2] the test system is acyclovir-resistant HSV-2. Kind of series: Plaque inhibition, acyclovir-resistant HSV-2 in Vero cells. It is filed as cell-based. To be noted: FIG. 7, Panel B.
A further series has as its system HIV-1. The series can be described thus: HIV-1 replication in PHA/IL-2-stimulated human peripheral blood mononuclear cells (p24 ELISA). In kind it is cell-based. The settings on record: n-docosanol/Pluronic, FIG. 13. The procedure:
Human peripheral blood mononuclear cells were cultured in medium containing 1 μg/ml PHA plus 5 units/ml IL-2 alone or also containing 100 μg/ml PFA, […] F-68 control vehicle contained in the high dose of n-docosanol/Pluronic. After overnight incubation, the cultures were inoculated with HIV-1 at a multiplicity of infection of 1 virion/cell. After 24 hours incubation at 37° C., the cultures were washed and inoculated with fresh medium containing PHA and IL-2, but lacking inhibitor. Replication of HIV-1 was determined 4 days later by quantitation of viral antigens by a p24-specific ELISA for HIV-1.
Our initial studies on HIV were conducted in collaboration with a U.S. National Institutes of Health laboratory and one of several experiments of this type is summarized in FIG. 13. Normal human peripheral blood mononuclear cells were activated with […] PHA plus 5 units/ml of IL-2 in medium alone or in the presence of the n-docosanol, Pluronic F-68 control vehicle, or phosphonoformic acid (PFA). The next day, the cultures were inoculated with HIV-1 and examined 4 days later for evidence of viral replication by detection of the p24 viral antigen. […] The dose response of HIV-1 to n-docosanol indicates an ED 50 of about 6-9 mM.
(In general: ELISA stands for enzyme-linked immunosorbent assay.)

Series [3] relates to herpes. The settings on record: literature, animal studies; cited from earlier work.
Series [4] deals with herpes. The settings on record: literature, tissue culture; cited from earlier work.

Structures are written as SMILES. Where two headings read alike, the source gives them in different places.

As to `CCCCCCCCCCO` [Formulation C-10], the antiviral activity entry with viruses (literature) is reported as “significant antiviral activity”. In series [1], the “cytotoxic and hemolytic effects” value is “exhibited cytotoxic and hemolytic effects”. With `CCCCCCCCCCCCO` [Formulation C-12], the antiviral activity result in the series on viruses (literature) was “significant antiviral activity”. For the same compound, the “cytotoxic and hemolytic effects” value in series [1] is “exhibited cytotoxic and hemolytic effects”. As to `Nc1nc2c(ncn2COCCO)c(=O)[nH]1` [acyclovir, reference compound], the “inhibition of plaque formation” value with wild-type HSV-2 is on record as “inhibit plaque formation by wild type HSV-2 equally”. For the same compound, the “inhibition of acyclovir-resistant HSV-2 mutant” value in series [2] is given as “fails to respond”. As to `OCc1ccccc1` [benzyl alcohol], in the series with viruses (under certain circumstances, U.S. Pat. No. 4,200,655), the antiviral activity result is reported as “some antiviral activity”.

For `O=C(O)P(=O)(O)O` [phosphonoformic acid, reference compound], in the series with HIV-1, the “inhibition of HIV-1 replication” value was “very potent antiviral compound”.

With `CCCCCCCCCCCCCCCCCCCCCCCCCCCCCCO` [triacontanol], the anti-herpes activity entry in the series with herpes [3] was “active as an anti-herpes agent”. For the same compound, in the series on herpes [4], the direct antiviral activity entry is given as “lacked direct antiviral activity”.
